Results taken from ChEMBL document CHEMBL1150658, “New ent-kaurane diterpenoids with anti-platelet aggregation activity from Annona squamosa” (2002).

Assays:
Type in all cases: functional
Conditions in all cases: Oryctolagus cuniculus
[1] = Antiplatelet activity against washed rabbit platelet assessed as inhibition of collagen-induced platelet aggregation at 200 uM
[2] = Antiplatelet activity against washed rabbit platelet assessed as inhibition of thrombin-induced platelet aggregation at 200 uM
[3] = Antiplatelet activity against washed rabbit platelet assessed as inhibition of arachidonic acid-induced platelet aggregation at 200 uM
[4] = Antiplatelet activity against washed rabbit platelet assessed as inhibition of platelet activating factor-induced platelet aggregation at 200 uM

Row | Structure (SMILES) | inhibition at 200 µM [1] [%] | inhibition at 200 µM [2] [%] | inhibition at 200 µM [3] [%] | inhibition at 200 µM [4] [%]
1 | C[C@@]12CCC[C@@](C)(O)[C@H]1CC[C@@]13C[C@@H](CC[C@H]12)[C@@H](C(=O)O)C3 | 30.5 | 2 | 4.5 | 13.3
2 | C[C@@]12CCC[C@@](C)(O)[C@H]1CC[C@@]13C[C@H](CC[C@H]12)[C@](O)(CO)C3 [ANNOSQUAMOSIN B] | 21.1 | 1.6 | 8.7 | 8.5
3 | C[C@@]12CCC[C@@](C)(C(=O)O)[C@H]1CC[C@@]13C[C@@H](CC[C@H]12)[C@](O)(CO)C3 | 8.6 | 6.8 | 14.9 | 14.4
4 | C[C@@]12CCC[C@@](C)(C=O)[C@H]1CC[C@@]13C[C@@H](CC[C@H]12)[C@@H](C(=O)O)C3 | 100 | 6.8 | 100 | 11.8
5 | CC(=O)OC[C@]1(O)C[C@@]23CC[C@H]4[C@@](C)(CCC[C@@]4(C)C(=O)O)[C@@H]2CC[C@H]1C3 | 30.1 | 8 | 10.8 | 11.1
6 | C[C@@]12CCC[C@@](C)(C=O)[C@H]1CC[C@@]13C[C@@H](CC[C@H]12)[C@](O)(CO)C3 | 17.6 | 0 | 9.6 | 5.5
7 | CC(=O)O[C@@]1(CO)C[C@@]23CC[C@H]4[C@@](C)(CCC[C@@]4(C)O)[C@@H]2CC[C@@H]1C3 [ANNOSQUAMOSIN D] | 10.6 | 2 | 4.9 | 9.3
8 | C[C@@]12CCC[C@@](C)(C(=O)O)[C@H]1CC[C@]13C[C@@H](CO)[C@H](CC[C@H]12)C3 | 23.8 | 2.8 | 4.1 | 7.4
9 | C[C@@]12CCC[C@@](C)(C(=O)O)[C@H]1CC[C@@]13C[C@H](CC[C@H]12)[C@@](O)(CO)C3 | 2.3 | 0.4 | 7.2 | 8.9
10 | C[C@@]12CCC[C@@](C)(C(=O)O)[C@H]1CC[C@@]13C[C@@H](CC[C@H]12)[C@H](C(=O)O)C3 | 56.9 | 6 | 15.4 | 15.2
11 | C[C@@]12CCC[C@@](C)(C=O)[C@H]1CC[C@@]13C[C@@H](CC[C@H]12)[C@@](O)(CO)C3 | 4.9 | 3.2 | 0.5 | 10.3
12 | C=C1C[C@@]23CC[C@H]4[C@@](C)(CCC[C@@]4(C)C(=O)O)[C@@H]2CC[C@@H]1C3 [KAURENOIC ACID] | 100 | 5.6 | 24.8 | 12.6
